Assay results: patent US20250355001A1, “METHOD FOR DETECTING A TAU PROTEIN FRAGMENT IN A SAMPLE” (GTINVENT LIMITED, priority 2022, published 2025)

Target: dGAE aggregates (Homo sapiens, UniProt P10636)
Test: Epitope occlusion assay: dGAE aggregation with/without LMTM, 423 mAb capture ELISA
Assay type: biochemical
Conditions: LMTM 1:5 ratio, 24 h 37 °C
Protocol: During dGAE aggregation in vitro, scAb binding regions on dGA/dGAE are ‘hidden’ or ‘occluded’ which leads to a loss of immunoreactivity in aggregation samples. Here we have shown the occlusion of binding regions in aggregated dGAE samples and the recovery of immunoreactivity in the presence of LMTM, a tau-aggregation inhibitor. For preparing the aggregates, 10 μl 10 mM DTT was added to 1000 μl 100 μM dGAE and agitated with/without LMTM (1:5 ratio) at 700 rpm for 24 h at 37° C. Following overnight agitation, one third of each sample was kept aside as ‘total’ and the rest was spun down at 16000×g for 30 min and separated into ‘supernatant’ and ‘pellet’. The pellet was then resuspended in half the original volume for further experiments. […] Doubling dilutions of dGAE aggregate ‘total’, ‘supernatant’ and ‘pellet’ samples at 10 μg/ml starting concentration were added to designated wells in doubling dilutions in 1×PBS. dGAE monomer (non-aggregated) was included as assay control. All double dilutions were done in final volumes of 100 μl. This was left to incubate on lab bench for 1 h followed by the addition of test scAbs at 10 μg/ml. Anti-HuCk HRP labelled secondary antibody was added as described previously and ELISA data generated is represented using the graph below.

Chain of dGAE aggregates (P10636 614-708): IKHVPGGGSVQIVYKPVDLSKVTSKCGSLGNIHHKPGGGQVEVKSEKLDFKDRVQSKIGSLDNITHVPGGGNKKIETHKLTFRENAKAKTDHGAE

In the case of CN(C)c1ccc2c(c1)Sc1cc(N(C)C)ccc1N2.CS(=O)(=O)O.CS(=O)(=O)O [LMTM, reference compound], the “effect on dGAE aggregation” value is reported as “preventing the aggregation event”.
